{"source": "patent US20260256794A1", "about": "“Oral Dynamine Formulations and Methods Therefor” (Ortho-Nutra, LLC, priority 2023, published 2026)", "assay_type_in_all_cases": "in vivo, human", "key": {"[1]": {"system": "subjects", "assay": "VAS-Positivity", "set-up": "VAS-Positivity rating, Mean: scale not given here", "experimental": "(§1) The inventors have discovered various compositions and methods of improving various indices of neurological and neuroenergetic functions by administering 100 mg (once daily) dosages of DYNAMINE™ (dosage between 1.0 and 1.4 mg/kg) as described in the following:\n(§2) All neuroenergetic tests as listed below were performed and data were collected after 0 and 4 days of assigned supplements (with acute effects also measured at day 4 over 180 minutes):\nAll VAS Measurement (Energy, Sustained Energy, Mental Stamina, Ability to Focus, Ability to Concentrate, Motivation to Accomplish Difficult Tasks, Drive, Vigor, Level of Positive Outlook, Mood, Feelings of Well-Being, Tolerate Stress); Day 0: Two tests were completed. The average of both scores was computed and this value was used in all statistical analysis. Day 4 (0 minutes after ingesting dose #4): Two tests were completed. The average of both scores was computed and this value was used in all statistical analysis. Day 4 (60, 120, and 180 minutes after ingesting dose #4): One test was completed at each time point.\nNeuroenergic parameters are inherently subjective, nevertheless significant in human behavior and well-being. To allow for a standardization among different subjects, the following experiments were performed using a visual analog scale using anchor statements (lowest possible/highest possible) in which subjects were asked to rate their subjective experience with respect to the specific neuroenergic parameters tested.\nVAS-Positivity: In this subjective test, subjects were asked to rate their personal level of energy on a VAS scale using the prompt of “My level of positive outlook right now is . . . ” (with rating lowest possible to highest possible)”. Results were collected as noted above and Table 28 provides exemplary results for Day 0 versus Day 4 ratings, whereas Table 29 provides exemplary acute results measured at Day 4 over a duration of 180 minutes."}, "[2]": {"system": "subjects", "assay": "Stroop-Total Score", "experimental": "as §1, §2\n(§3) Stroop Color Matching Test (Total Score, Accuracy %, Average Score): Day 0: Two blocks of three tests were completed. Each block of three tests was separated by 10 minutes. The median of each block was taken and then those two scores were averaged. This value was used in all statistical analysis. Day 4: Three tests were completed at four time points: after 0, 60, 120, and 180 minutes of taking dose #4. The median of the three tests at each time point was used in all statistical analysis.\n(§4) The Stroop Color and Word Test (SCWT, or Stroop test) is a neuropsychological test extensively used to assess the ability to inhibit cognitive interference that occurs when the processing of a specific stimulus feature impedes the simultaneous processing of a second stimulus attribute, well-known as the Stroop effect (see e.g., Front Psychol. 2017; 8:557). Here, subjects were required to read three different tables as fast as possible. Two of them represent the “congruous condition” in which participants are required to read names of colors (‘color-words’) printed in black ink (W) and name different color patches (C). However, in the third table, the color-word (CW) condition, color-words are printed in an inconsistent color ink (e.g., the word “red” is printed in green ink). In this incongruent condition, participants are required to name the color of the ink instead of reading the word. In other words, the participants are required to perform a less automated task (i.e., naming ink color) while inhibiting the interference arising from a more automated task (i.e., reading the word). This difficulty in inhibiting the more automated process is called the Stroop effect. The Stroop test is predominantly used to measure the ability to inhibit cognitive interference. However, some sources also report its application to measure other cognitive functions such as attention, processing speed, cognitive flexibility, and working memory.\n(§5) Stroop-Total Score: The results for this test were based on a total score comparing performance between Day 0 and Day 4, with Day 4 including tests over a duration of 180 minutes. Results were collected as noted above and Table 41 provides exemplary results for Day 0 versus Day 4 ratings, whereas Table 42 provides exemplary acute results measured at Day 4 over a duration of 180 minutes."}, "[3]": {"system": "subjects", "assay": "Stroop-Average Time", "conditions": "unit assumed", "experimental": "as §1, §2, §3, §4\nas §5, with “Stroop-Average Time:” for “Stroop-Total Score:”, “an average time” for “a total”, “45” for “41”, “46” for “42”"}, "[4]": {"system": "subjects", "assay": "Trail Making Test", "conditions": "for Trail Making Test score, Mean: lower = faster", "experimental": "as §1, §2\nas §3, with “Trail Making Test:” for “Stroop Color Matching Test (Total Score, Accuracy %, Average Score):”\nThe trail making test has at least two test conditions. In Condition A, a subject is asked to draw lines to connect circled numbers in a numerical sequence (e.g., 1-2-3, etc.) as rapidly in possible. In Condition B the subject is asked to draw lines to connect circled numbers and letters in an alternating numeric and alphabetic sequence (i.e., 1-A-2-B, etc.) as rapidly as possible. Although trail making tests are conceptually very simple, they are thought to reflect a wide variety of cognitive processes including attention, visual search and scanning, sequencing and shifting, psychomotor speed, abstraction, flexibility, ability to execute and modify a plan of action, and ability to maintain two trains of thought simultaneously."}, "[5]": {"conditions": "100 mg once daily, Day 4, 0-180 min, vs Group A (placebo)"}, "[6]": {"conditions": "100 mg once daily, Day 4, 0 min after dose #4"}, "[7]": {"conditions": "100 mg once daily, Day 4, 60 min-0 min, vs Group A (placebo)"}, "[8]": {"conditions": "100 mg once daily, Day 4, 60 min after dose #4"}, "[9]": {"conditions": "100 mg once daily, Day 4, 120 min-0 min, vs Group A (placebo)"}, "[10]": {"conditions": "100 mg once daily, Day 4, 120 min after dose #4"}, "[11]": {"conditions": "100 mg once daily, Day 4, 180 min-0 min, vs Group A (placebo)"}, "[12]": {"conditions": "100 mg once daily, Day 4, 180 min after dose #4"}}}
{"smiles": "COc1nc2c(c(=O)n1C)n(C)c(=O)n2C", "note": "[methylliberine, 2-methoxy-1,7,9-trimethylpurine-6,8-dione]", "values": [{"measurement": "VAS-Positivity area under the curve, Mean", "setting": "[1]; 100 mg once daily, Day 4, 0-180 min", "result": 1235}, {"measurement": "VAS-Positivity area under the curve, Mean Difference ± SE", "setting": "[1]; [5]", "result": "15.0 ± 43.0"}, {"measurement": "VAS-Positivity area under the curve, effect size d", "setting": "[1]; [5]", "result": 0.05}, {"measurement": "VAS-Positivity rating, Mean", "setting": "[1]; [6]", "result": 6.4}, {"measurement": "VAS-Positivity changes from baseline, Mean Difference ± SE", "setting": "[1]; [7]", "result": "0.07 ± 0.19"}, {"measurement": "VAS-Positivity changes from baseline, effect size d", "setting": "[1]; [7]", "result": 0.08}, {"measurement": "VAS-Positivity rating, Mean", "setting": "[1]; [8]", "result": 6.8}, {"measurement": "VAS-Positivity changes from baseline, Mean Difference ± SE", "setting": "[1]; [9]", "result": "−0.05 ± 0.25"}, {"measurement": "VAS-Positivity changes from baseline, effect size d", "setting": "[1]; [9]", "result": 0.05}, {"measurement": "VAS-Positivity rating, Mean", "setting": "[1]; [10]", "result": 7.0}, {"measurement": "VAS-Positivity changes from baseline, Mean Difference ± SE", "setting": "[1]; [11]", "result": "0.46 ± 0.27"}, {"measurement": "VAS-Positivity changes from baseline, effect size d", "setting": "[1]; [11]", "result": 0.43}, {"measurement": "VAS-Positivity rating, Mean", "setting": "[1]; [12]", "result": 7.0}, {"measurement": "VAS-Positivity rating, Mean", "setting": "[1]; Day 0 (before supplementation)", "result": 6.6}, {"measurement": "Stroop total score, Mean", "setting": "[2]; [6]", "result": 127.4}, {"measurement": "Stroop total score, Mean", "setting": "[2]; [8]", "result": 131.5}, {"measurement": "Stroop total score, Mean", "setting": "[2]; [10]", "result": 132.1}, {"measurement": "Stroop total score, Mean", "setting": "[2]; [12]", "result": 134.8}, {"measurement": "Stroop total score, Mean", "setting": "[2]; Day 0 (before supplementation)", "result": 125.0}, {"measurement": "Stroop average time, Mean", "setting": "[3]; [6]", "result": 0.961, "unit": "s"}, {"measurement": "Stroop average time, Mean", "setting": "[3]; [8]", "result": 0.929, "unit": "s"}, {"measurement": "Stroop average time, Mean", "setting": "[3]; [10]", "result": 0.921, "unit": "s"}, {"measurement": "Stroop average time, Mean", "setting": "[3]; [12]", "result": 0.908, "unit": "s"}, {"measurement": "Stroop average time, Mean", "setting": "[3]; Day 0 (before supplementation)", "result": 0.983, "unit": "s"}, {"measurement": "Trail Making Test score, Mean", "setting": "[4]; [6]", "result": 21.6}, {"measurement": "Trail Making Test score, Mean", "setting": "[4]; [8]", "result": 20.4}, {"measurement": "Trail Making Test score, Mean", "setting": "[4]; [10]", "result": 20.2}, {"measurement": "Trail Making Test score, Mean", "setting": "[4]; [12]", "result": 20.3}, {"measurement": "improvement in TMT performance", "setting": "[4]; 4-days daily supplementation, Day 4 vs Day 0, p<0.001", "result": "+11.1%"}, {"measurement": "Trail Making Test score, Mean", "setting": "[4]; Day 0 (before supplementation)", "result": 24.3}]}
